According to PubChem BioAssay (NCI):
“And” between values parts separate entries of the source, which are not always exact repeats. Equal entries are not always repeated.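 Five concentrations, 48 hours, 96-well plates. GI50 = concentration required for 50% inhibition of growth. At the TGI there is no net growth.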

Key:
Experiment in all cases: inhibition of tumour cell growth, NCI panel, 48 h
ACHN renal = system: ACHN renal
RXF 393 renal = system: RXF 393 renal
SNB-19 CNS = system: SNB-19 CNS
LOX IMVI melanoma = system: LOX IMVI melanoma
NCI/ADR-RES ovarian = system: NCI/ADR-RES ovarian
HT29 colon = system: HT29 colon
HL-60(TB) leukemia = system: HL-60(TB) leukemia
HOP-62 NSCLC = system: HOP-62 NSCLC
SK-OV-3 ovarian = system: SK-OV-3 ovarian
MALME-3M melanoma = system: MALME-3M melanoma

For `CC1(C)C(=O)/C=C\C(=O)C(C)(C)C2=CC=C(O2)C(C)(C)C(=O)C(Br)C(Br)C(=O)C(C)(C)C2=CC=C1O2` (configuration not stated), the TGI (ACHN renal) was greater than 46.4 µM, the TGI (RXF 393 renal) was greater than 83.8 µM and the TGI (SNB-19 CNS) was greater than 100 µM. For the same compound, the TGI (LOX IMVI melanoma) was greater than 59.6 µM, the TGI (NCI/ADR-RES ovarian) was 90.2 µM and the TGI (HT29 colon) was greater than 100 µM. For the same compound, the TGI (HL-60(TB) leukemia) was 18.1 µM, the TGI (HOP-62 NSCLC) was greater than 100 µM and the TGI (SK-OV-3 ovarian) was greater than 100 µM. It also gave a TGI (MALME-3M melanoma) greater than 100 µM.

`CC[C@]12CN3CCc4c([nH]c5ccccc45)[C@@](C(=O)OC)(c4cc5c(cc4OC)N(C)[C@H]4[C@@](O)(C(=O)OC)[C@H](OC(C)=O)[C@]6(CC)C=CCN7CC[C@]54[C@@H]76)CC(C3)[C@H]1O2` (some centres not stated) was tested, and the GI50 (ACHN renal) was 2.14 µM, the TGI (ACHN renal) was greater than 100 µM and the TGI (RXF 393 renal) was greater than 100 µM. It also gave a GI50 (SNB-19 CNS) of 0.214 µM, a TGI (SNB-19 CNS) greater than 100 µM and a GI50 (LOX IMVI melanoma) of 0.145 µM. For the same compound, the TGI (LOX IMVI melanoma) was greater than 100 µM, the GI50 (NCI/ADR-RES ovarian) was 11.6 µM and the TGI (NCI/ADR-RES ovarian) was greater than 100 µM. It also gave a GI50 (HT29 colon) of 0.131 µM, a TGI (HT29 colon) greater than 73.5 µM and a GI50 (HL-60(TB) leukemia) of 0.088 µM. The GI50 (HOP-62 NSCLC) was 0.121 µM, the TGI (HOP-62 NSCLC) was 26.9 µM and the TGI (SK-OV-3 ovarian) was greater than 100 µM. For the same compound, the GI50 (MALME-3M melanoma) was 0.0639 µM and the TGI (MALME-3M melanoma) was greater than 50 µM.

With `COc1cc2c3c(n(CCCN=[N+]=[N-])c(=O)c2cc1OC)-c1ccc([N+](=O)[O-])cc1C3=O` the GI50 (ACHN renal) was greater than 100 µM, the TGI (ACHN renal) was greater than 100 µM and the GI50 (RXF 393 renal) was greater than 100 µM. It also gave a TGI (RXF 393 renal) greater than 100 µM, a GI50 (SNB-19 CNS) greater than 100 µM and a TGI (SNB-19 CNS) greater than 100 µM. It also gave a GI50 (LOX IMVI melanoma) of 61 µM, a TGI (LOX IMVI melanoma) greater than 100 µM and a GI50 (NCI/ADR-RES ovarian) of 80 µM. For the same compound, the TGI (NCI/ADR-RES ovarian) was greater than 100 µM, the GI50 (HT29 colon) was greater than 100 µM and the TGI (HT29 colon) was greater than 100 µM. The GI50 (HL-60(TB) leukemia) was greater than 100 µM, the TGI (HL-60(TB) leukemia) was greater than 100 µM and the GI50 (HOP-62 NSCLC) was 89.7 µM. It also gave a TGI (HOP-62 NSCLC) greater than 100 µM, a GI50 (SK-OV-3 ovarian) greater than 100 µM and a TGI (SK-OV-3 ovarian) greater than 100 µM. The GI50 (MALME-3M melanoma) was greater than 100 µM and the TGI (MALME-3M melanoma) was greater than 100 µM.

In the case of `COc1cccc2c1C(=O)c1c(O)c3c(c(O)c1C2=O)C[C@](O)(C(=O)CO)C[C@H]3O[C@@H]1C[C@@H](NC(=O)CCCN(C)C2(c3ccc(F)cc3)CC3CCC2C3)[C@H](O)[C@@H](C)O1` (some centres not stated), the GI50 (ACHN renal) is reported as 0.736 µM, the TGI (ACHN renal) is reported as 1.4 µM and the GI50 (RXF 393 renal) is reported as 0.696 µM. The TGI (RXF 393 renal) was 1.41 µM, the GI50 (SNB-19 CNS) was 0.9 µM and the TGI (SNB-19 CNS) was 2.19 µM. For the same compound, the GI50 (LOX IMVI melanoma) was 0.734 µM, the TGI (LOX IMVI melanoma) was 1.45 µM and the GI50 (NCI/ADR-RES ovarian) was 8.47 µM. The TGI (NCI/ADR-RES ovarian) was 50 µM, the GI50 (HT29 colon) was 0.881 µM and the TGI (HT29 colon) was 1.92 µM. The GI50 (HL-60(TB) leukemia) was 1.17 µM, the TGI (HL-60(TB) leukemia) was 3.01 µM and the GI50 (HOP-62 NSCLC) was 2.26 µM. For the same compound, the TGI (HOP-62 NSCLC) was 10.6 µM, the GI50 (SK-OV-3 ovarian) was 7.59 µM and the TGI (SK-OV-3 ovarian) was 16.4 µM. The GI50 (MALME-3M melanoma) was 0.914 µM and the TGI (MALME-3M melanoma) was 1.76 µM.

With `Cn1cnc([N+](=O)[O-])c1S(=O)(=O)Oc1ccc(Cl)cc1` the GI50 (ACHN renal) was 1.8 µM, the TGI (ACHN renal) was 3.28 µM and the GI50 (RXF 393 renal) was 2.77 µM. It also gave a TGI (RXF 393 renal) of 8.01 µM, a GI50 (SNB-19 CNS) greater than 100 µM and a TGI (SNB-19 CNS) greater than 100 µM. The GI50 (LOX IMVI melanoma) was 1.73 µM, the TGI (LOX IMVI melanoma) was 3.57 µM and the GI50 (NCI/ADR-RES ovarian) was 11.7 µM. For the same compound, the TGI (NCI/ADR-RES ovarian) was 64.3 µM, the GI50 (HT29 colon) was 2.33 µM and the TGI (HT29 colon) was 5.36 µM. The GI50 (HL-60(TB) leukemia) was 1.85 µM, the TGI (HL-60(TB) leukemia) was 3.77 µM and the GI50 (HOP-62 NSCLC) was 16.1 µM. It also gave a TGI (HOP-62 NSCLC) of 39 µM, a GI50 (SK-OV-3 ovarian) of 50.5 µM and a TGI (SK-OV-3 ovarian) greater than 100 µM. For the same compound, the GI50 (MALME-3M melanoma) was 1.99 µM and the TGI (MALME-3M melanoma) was 4.15 µM.

For `O=C(COc1ccccc1)NNc1ccccc1`, the GI50 (ACHN renal) was 12.5 µM and 13.9 µM, the TGI (ACHN renal) was greater than 300 µM and the GI50 (RXF 393 renal) was 98.9 µM. It also gave a TGI (RXF 393 renal) greater than 300 µM, a GI50 (SNB-19 CNS) of 234 µM and a TGI (SNB-19 CNS) greater than 300 µM. The GI50 (LOX IMVI melanoma) was 12.3 µM and 12.2 µM, the TGI (LOX IMVI melanoma) was greater than 300 µM and the GI50 (NCI/ADR-RES ovarian) was 58.1 µM and 63.3 µM. For the same compound, the TGI (NCI/ADR-RES ovarian) was greater than 300 µM, the GI50 (HT29 colon) was 264 µM and the TGI (HT29 colon) was greater than 300 µM. For the same compound, the GI50 (HL-60(TB) leukemia) was 3.91 µM and 9.54 µM, the TGI (HL-60(TB) leukemia) was greater than 300 µM and the GI50 (HOP-62 NSCLC) was 116 µM. The TGI (HOP-62 NSCLC) was greater than 300 µM, the GI50 (SK-OV-3 ovarian) was 254 µM and the TGI (SK-OV-3 ovarian) was greater than 300 µM. The GI50 (MALME-3M melanoma) was 66.9 µM and 101 µM and the TGI (MALME-3M melanoma) was greater than 300 µM.
